This passage reports inhibition results from ChEMBL document CHEMBL3132769, “Fragment growing to retain or alter the selectivity of anchored kinase hinge-binding fragments” (Medchemcomm, 2014).

By inhibition is commonly meant how much of the control response was suppressed.

In test [1] the target is Tyrosine-protein kinase BTK (Homo sapiens) (UniProt Q06187). The test is described as follows: Inhibition of human full length BTK expressed in baculovirus assessed as substrate phosphorylation using fluorescence-labelled peptides as substrate at 2 uM after 90 mins by microfluidic peptide phosphorylation assay.
Test [2] concerns the target Aurora kinase B (Homo sapiens) (UniProt Q96GD4). The test is described as follows: Inhibition of human full length AurB expressed in baculovirus assessed as substrate phosphorylation using fluorescence-labelled peptides as substrate at 0.2 uM after 90 mins by microfluidic peptide phosphorylation assay.
Test [3] has as its target Protein kinase C beta type (Homo sapiens) (UniProt P05771). Briefly: Inhibition of human truncated PKC beta1 expressed in baculovirus assessed as substrate phosphorylation using fluorescence-labelled peptides as substrate at 0.2 uM after 90 mins by microfluidic peptide phosphorylation assay.
For test [4], the target named is T1, Mitogen-activated protein kinase 13 (Homo sapiens) (UniProt O15264).
T1 sequence (whole entry): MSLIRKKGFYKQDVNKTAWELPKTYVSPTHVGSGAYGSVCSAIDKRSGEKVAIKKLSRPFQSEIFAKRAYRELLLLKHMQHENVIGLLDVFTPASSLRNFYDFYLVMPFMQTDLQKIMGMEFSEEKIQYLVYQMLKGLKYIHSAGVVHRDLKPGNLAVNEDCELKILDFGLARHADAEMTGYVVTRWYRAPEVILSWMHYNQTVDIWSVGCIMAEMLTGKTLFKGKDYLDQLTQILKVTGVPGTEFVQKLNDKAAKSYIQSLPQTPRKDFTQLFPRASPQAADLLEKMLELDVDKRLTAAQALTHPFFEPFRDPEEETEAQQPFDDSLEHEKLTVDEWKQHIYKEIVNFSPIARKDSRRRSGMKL
The test is described as follows: Inhibition of human full length p38 delta expressed in Escherichia coli cell assessed as substrate phosphorylation using fluorescence-labelled peptides as substrate at 0.2 uM after 90 mins by microfluidic peptide phosphorylation assay.

Test [5] addresses Vascular endothelial growth factor receptor 2 (Homo sapiens) (UniProt P35968). Briefly: Inhibition of human KDR cytoplasmic domain expressed in baculovirus assessed as substrate phosphorylation using fluorescence-labelled peptides as substrate at 0.2 uM after 90 mins by microfluidic peptide phosphorylation assay.
The target in test [6] is Ribosomal protein S6 kinase alpha-1 (Homo sapiens) (UniProt Q15418). The test is described as follows: Inhibition of human full length RSK1 expressed in baculovirus assessed as substrate phosphorylation using fluorescence-labelled peptides as substrate at 0.06 uM after 90 mins by microfluidic peptide phosphorylation assay.
For test [7], the target named is T2, Protein kinase C epsilon type (Homo sapiens) (UniProt Q02156).
T2 sequence (whole entry): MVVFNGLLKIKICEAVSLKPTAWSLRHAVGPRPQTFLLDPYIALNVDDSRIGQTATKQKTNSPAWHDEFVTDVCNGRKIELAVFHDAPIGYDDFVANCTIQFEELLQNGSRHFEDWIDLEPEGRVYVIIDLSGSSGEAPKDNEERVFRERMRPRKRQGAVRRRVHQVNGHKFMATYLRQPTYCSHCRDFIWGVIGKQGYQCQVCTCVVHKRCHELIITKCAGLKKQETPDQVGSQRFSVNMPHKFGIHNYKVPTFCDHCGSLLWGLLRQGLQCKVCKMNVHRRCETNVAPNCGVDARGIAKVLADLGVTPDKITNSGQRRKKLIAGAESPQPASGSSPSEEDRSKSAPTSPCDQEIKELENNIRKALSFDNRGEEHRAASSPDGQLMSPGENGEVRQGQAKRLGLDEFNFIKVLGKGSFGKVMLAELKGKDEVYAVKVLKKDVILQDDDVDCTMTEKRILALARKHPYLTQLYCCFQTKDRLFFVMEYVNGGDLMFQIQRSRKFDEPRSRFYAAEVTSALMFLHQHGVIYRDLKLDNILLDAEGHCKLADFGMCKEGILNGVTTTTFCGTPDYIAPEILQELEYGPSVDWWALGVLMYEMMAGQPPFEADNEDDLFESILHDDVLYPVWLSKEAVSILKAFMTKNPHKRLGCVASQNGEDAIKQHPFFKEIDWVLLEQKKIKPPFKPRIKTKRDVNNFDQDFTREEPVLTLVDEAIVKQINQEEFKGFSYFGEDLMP
Briefly: Inhibition of human truncated PKC epsilon expressed in baculovirus assessed as substrate phosphorylation using fluorescence-labelled peptides as substrate at 0.06 uM after 90 mins by microfluidic peptide phosphorylation assay.

The target of test [8] is T1, Mitogen-activated protein kinase 13 (Homo sapiens). The test is described as follows: Inhibition of human full length p38 delta expressed in Escherichia coli cell assessed as substrate phosphorylation using fluorescence-labelled peptides as substrate at 9 uM after 90 mins by microfluidic peptide phosphorylation assay.
In test [9] the target is Hepatocyte growth factor receptor (Homo sapiens) (UniProt P08581). Briefly: Inhibition of human MET cytoplasmic domain expressed in baculovirus assessed as substrate phosphorylation using fluorescence-labelled peptides as substrate at 9 uM after 90 mins by microfluidic peptide phosphorylation assay.
Test [10] has as its target T3, Aurora kinase C (Homo sapiens) (UniProt Q9UQB9).
T3 sequence (whole entry): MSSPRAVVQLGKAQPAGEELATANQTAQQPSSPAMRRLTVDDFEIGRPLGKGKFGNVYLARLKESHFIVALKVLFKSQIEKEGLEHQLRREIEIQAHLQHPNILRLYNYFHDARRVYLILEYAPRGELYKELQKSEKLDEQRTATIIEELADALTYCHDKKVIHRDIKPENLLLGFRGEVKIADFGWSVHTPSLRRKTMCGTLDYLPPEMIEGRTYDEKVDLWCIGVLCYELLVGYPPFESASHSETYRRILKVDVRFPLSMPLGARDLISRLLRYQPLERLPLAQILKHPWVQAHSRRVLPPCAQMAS
Briefly: Inhibition of human full length AurC expressed in baculovirus assessed as substrate phosphorylation using fluorescence-labelled peptides as substrate at 8 uM after 90 mins by microfluidic peptide phosphorylation assay.

The target in test [11] is Receptor-type tyrosine-protein kinase FLT3 (Homo sapiens) (UniProt P36888). Briefly: Inhibition of human FLT3 catalytic domain expressed in baculovirus assessed as substrate phosphorylation using fluorescence-labelled peptides as substrate at 70 uM after 90 mins by microfluidic peptide phosphorylation assay.
Test [12] has as its target MAP kinase p38 (Homo sapiens) (UniProt O15264+Q15759+Q16539+P53778). Briefly: Inhibition of human full length p38 beta2 expressed in Escherichia coli cell assessed as substrate phosphorylation using fluorescence-labelled peptides as substrate at 70 uM after 90 mins by microfluidic peptide phosphorylation assay.
The target of test [13] is Insulin-like growth factor 1 receptor (Homo sapiens) (UniProt P08069). The test is described as follows: Inhibition of human IGF1R catalytic domain expressed in baculovirus assessed as substrate phosphorylation using fluorescence-labelled peptides as substrate at […] after 90 mins by microfluidic peptide phosphorylation assay.
Test [14] addresses Glycogen synthase kinase-3 beta (Homo sapiens) (UniProt P49841). Briefly: Inhibition of human full length GSK-3 beta expressed in baculovirus assessed as substrate phosphorylation using fluorescence-labelled peptides as substrate at 420 uM after 90 mins by microfluidic peptide phosphorylation assay.

The structures appear in SMILES notation.

Sequence of Vascular endothelial growth factor receptor 2 (Homo sapiens) (P35968 whole entry, the tested form may be a part): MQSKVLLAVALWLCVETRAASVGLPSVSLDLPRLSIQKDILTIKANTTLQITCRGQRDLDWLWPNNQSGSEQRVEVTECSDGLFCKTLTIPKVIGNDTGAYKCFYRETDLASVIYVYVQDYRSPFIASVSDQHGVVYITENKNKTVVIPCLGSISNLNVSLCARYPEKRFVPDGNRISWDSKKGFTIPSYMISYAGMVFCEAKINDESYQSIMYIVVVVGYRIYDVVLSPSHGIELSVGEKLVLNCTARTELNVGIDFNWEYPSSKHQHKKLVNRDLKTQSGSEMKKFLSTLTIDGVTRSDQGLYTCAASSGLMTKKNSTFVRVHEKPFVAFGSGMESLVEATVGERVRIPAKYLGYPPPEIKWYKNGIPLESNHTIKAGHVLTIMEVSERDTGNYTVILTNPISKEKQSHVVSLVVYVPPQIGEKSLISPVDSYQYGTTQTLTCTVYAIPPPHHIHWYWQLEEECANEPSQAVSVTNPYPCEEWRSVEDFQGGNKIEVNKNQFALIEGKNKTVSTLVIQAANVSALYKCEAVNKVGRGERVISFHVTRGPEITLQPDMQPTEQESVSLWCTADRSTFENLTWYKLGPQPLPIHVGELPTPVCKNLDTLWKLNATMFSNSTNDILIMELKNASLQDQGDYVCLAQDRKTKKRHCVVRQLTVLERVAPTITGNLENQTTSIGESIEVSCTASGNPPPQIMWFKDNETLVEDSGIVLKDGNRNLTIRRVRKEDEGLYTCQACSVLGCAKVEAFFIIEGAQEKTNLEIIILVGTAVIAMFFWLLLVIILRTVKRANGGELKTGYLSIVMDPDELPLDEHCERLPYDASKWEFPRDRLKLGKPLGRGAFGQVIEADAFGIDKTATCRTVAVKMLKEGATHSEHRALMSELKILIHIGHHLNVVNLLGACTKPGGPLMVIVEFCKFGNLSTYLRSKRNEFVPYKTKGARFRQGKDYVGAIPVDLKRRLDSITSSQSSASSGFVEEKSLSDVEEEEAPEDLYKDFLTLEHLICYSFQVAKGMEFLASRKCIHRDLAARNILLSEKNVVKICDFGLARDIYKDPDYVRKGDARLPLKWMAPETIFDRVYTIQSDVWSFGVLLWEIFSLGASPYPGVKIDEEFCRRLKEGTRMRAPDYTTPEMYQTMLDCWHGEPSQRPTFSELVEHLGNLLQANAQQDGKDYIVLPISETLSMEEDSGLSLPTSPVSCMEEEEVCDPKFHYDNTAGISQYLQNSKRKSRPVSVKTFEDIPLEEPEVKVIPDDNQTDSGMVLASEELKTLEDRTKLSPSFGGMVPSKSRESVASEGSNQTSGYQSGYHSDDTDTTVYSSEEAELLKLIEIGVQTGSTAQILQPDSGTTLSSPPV
Sequence of Glycogen synthase kinase-3 beta (Homo sapiens) (P49841 whole entry, looked up): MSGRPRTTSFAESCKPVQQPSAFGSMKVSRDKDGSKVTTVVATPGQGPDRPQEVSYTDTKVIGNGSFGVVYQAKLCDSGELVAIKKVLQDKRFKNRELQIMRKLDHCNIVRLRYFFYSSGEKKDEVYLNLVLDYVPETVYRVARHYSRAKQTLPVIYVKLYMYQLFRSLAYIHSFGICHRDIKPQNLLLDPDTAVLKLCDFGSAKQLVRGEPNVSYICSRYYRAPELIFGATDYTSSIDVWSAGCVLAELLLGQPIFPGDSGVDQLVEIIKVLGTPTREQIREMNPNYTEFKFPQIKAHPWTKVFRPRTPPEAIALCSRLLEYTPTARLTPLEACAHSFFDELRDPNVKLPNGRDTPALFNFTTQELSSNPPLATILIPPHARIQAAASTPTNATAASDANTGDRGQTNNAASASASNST
Sequence of Protein kinase C beta type (Homo sapiens) (P05771 2-671 limits assumed): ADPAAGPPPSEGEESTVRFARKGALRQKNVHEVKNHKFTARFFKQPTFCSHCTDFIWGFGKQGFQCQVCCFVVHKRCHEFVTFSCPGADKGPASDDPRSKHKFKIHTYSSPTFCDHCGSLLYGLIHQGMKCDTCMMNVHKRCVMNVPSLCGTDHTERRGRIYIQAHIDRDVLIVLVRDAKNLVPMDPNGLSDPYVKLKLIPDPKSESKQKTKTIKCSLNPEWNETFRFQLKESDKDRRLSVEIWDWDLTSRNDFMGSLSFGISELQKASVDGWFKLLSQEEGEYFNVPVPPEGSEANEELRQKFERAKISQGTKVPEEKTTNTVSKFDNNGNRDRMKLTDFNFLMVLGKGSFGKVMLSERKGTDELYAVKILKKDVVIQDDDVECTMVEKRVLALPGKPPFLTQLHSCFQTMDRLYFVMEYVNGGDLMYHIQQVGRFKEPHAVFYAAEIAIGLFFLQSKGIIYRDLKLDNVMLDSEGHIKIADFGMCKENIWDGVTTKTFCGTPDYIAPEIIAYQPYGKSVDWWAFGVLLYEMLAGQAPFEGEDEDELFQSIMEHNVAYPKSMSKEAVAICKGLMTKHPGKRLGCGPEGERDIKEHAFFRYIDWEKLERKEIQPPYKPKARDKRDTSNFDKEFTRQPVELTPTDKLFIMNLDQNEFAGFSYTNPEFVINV
Sequence of Ribosomal protein S6 kinase alpha-1 (Homo sapiens) (Q15418 whole entry): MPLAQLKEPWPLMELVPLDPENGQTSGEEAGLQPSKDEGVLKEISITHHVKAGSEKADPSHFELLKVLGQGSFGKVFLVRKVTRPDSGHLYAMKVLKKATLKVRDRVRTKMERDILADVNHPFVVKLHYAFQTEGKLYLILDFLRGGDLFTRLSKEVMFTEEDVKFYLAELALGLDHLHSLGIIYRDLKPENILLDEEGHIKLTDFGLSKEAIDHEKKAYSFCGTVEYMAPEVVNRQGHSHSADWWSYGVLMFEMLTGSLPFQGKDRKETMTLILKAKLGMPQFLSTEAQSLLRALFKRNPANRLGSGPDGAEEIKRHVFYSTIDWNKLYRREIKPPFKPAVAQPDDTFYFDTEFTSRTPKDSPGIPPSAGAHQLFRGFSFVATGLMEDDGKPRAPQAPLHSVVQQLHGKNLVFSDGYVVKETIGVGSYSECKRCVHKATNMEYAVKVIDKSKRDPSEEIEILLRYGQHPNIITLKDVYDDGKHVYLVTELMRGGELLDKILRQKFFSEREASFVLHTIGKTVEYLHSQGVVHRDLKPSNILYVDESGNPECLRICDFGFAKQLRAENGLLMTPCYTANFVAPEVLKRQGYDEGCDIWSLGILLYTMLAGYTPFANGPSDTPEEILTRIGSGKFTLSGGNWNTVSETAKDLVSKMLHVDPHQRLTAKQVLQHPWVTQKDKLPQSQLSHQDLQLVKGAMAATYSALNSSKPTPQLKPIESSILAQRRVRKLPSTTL
Sequence of Aurora kinase B (Homo sapiens) (Q96GD4 whole entry, the tested form may be a part): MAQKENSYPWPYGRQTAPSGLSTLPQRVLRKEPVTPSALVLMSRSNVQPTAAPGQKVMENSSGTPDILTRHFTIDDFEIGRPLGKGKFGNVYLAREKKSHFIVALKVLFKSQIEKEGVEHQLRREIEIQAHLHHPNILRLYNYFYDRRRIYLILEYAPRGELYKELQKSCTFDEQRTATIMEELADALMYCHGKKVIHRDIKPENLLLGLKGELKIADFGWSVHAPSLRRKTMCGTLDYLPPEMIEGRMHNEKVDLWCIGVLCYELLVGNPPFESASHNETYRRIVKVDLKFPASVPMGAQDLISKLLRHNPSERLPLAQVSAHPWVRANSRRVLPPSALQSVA
Sequence of Receptor-type tyrosine-protein kinase FLT3 (Homo sapiens) (P36888 whole entry, the tested form may be a part): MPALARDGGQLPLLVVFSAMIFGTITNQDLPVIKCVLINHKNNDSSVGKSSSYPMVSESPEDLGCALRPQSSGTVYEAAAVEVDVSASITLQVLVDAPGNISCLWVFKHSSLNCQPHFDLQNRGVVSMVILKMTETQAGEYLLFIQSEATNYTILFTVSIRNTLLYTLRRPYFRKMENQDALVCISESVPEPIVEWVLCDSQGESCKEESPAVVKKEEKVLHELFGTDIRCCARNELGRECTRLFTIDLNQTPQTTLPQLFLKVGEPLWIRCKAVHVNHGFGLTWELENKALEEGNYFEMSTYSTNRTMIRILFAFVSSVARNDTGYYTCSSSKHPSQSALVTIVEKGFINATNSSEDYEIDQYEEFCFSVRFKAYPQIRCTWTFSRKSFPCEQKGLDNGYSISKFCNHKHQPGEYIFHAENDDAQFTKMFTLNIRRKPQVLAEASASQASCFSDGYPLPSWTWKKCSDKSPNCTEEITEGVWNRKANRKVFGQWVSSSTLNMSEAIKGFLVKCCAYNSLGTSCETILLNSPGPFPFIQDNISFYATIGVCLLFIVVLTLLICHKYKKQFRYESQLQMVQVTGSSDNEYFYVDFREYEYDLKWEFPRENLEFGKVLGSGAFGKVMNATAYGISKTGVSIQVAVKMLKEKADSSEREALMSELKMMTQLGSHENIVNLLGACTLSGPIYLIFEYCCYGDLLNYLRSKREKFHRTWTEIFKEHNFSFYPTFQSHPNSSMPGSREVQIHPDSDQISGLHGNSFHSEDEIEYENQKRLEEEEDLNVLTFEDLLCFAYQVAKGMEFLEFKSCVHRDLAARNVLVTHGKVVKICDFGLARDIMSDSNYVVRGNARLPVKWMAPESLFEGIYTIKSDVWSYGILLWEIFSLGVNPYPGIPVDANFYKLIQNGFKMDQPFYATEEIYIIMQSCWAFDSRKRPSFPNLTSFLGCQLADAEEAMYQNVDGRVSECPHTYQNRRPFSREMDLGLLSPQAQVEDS

As for `NC1CCN(c2ncnc3[nH]ccc23)CC1`, the inhibition in test [1] was determined as 0.5%.

For the compound `Clc1ccc(C2(c3ccc(-c4ncnc5[nH]cnc45)cc3)CCNCC2)cc1`, the inhibition in test [2] came to 87.5%; in test [3] it was 53%; in [4] it was 11%; in test [5] it was 9%.

Turning to `NC1(Cc2ccc(Cl)cc2)CCN(c2ncnc3[nH]ccc23)CC1`, the results for the inhibition in [6] and in test [7] were 19.5% and 1.5%, respectively.

Take `NCC1CN(c2ncnc3[nH]c4cnccc4c23)CCO1` (centres undefined): the inhibition in [8] was determined as 2%; in [9], 0%.

Regarding `NCC1CCN(c2ncnc3[nH]ccc23)CC1`, the inhibition in test [10] turned out to be 34%.

As to `CNCc1ccc(-c2ncnc3[nH]cnc23)cc1`, the inhibition was determined as 36% in test [11] and 1.5% in test [12].

Turning to `COC(=O)c1cnc(Nc2cnc(C#N)cn2)cc1NCC1CCNCC1`, the inhibition in test [13] worked out at 3.5%.

On to `c1nc(N2CCOCC2)c2nc[nH]c2n1`, for which the inhibition in test [14] came to 90%.
